According to PubChem BioAssay (NCI):
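The compound was tested at five concentrations on cells cultured in 96-well plates, with a 48-hour exposure period. GI50 marks 50% less growth. TGI: total growth inhibition.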

How the values were obtained:
Test in all cases: inhibition of tumour cell growth, NCI panel, 48 h
OVCAR-3 ovarian = test system: OVCAR-3 ovarian
SNB-75 CNS = test system: SNB-75 CNS
HOP-92 NSCLC = test system: HOP-92 NSCLC
HOP-62 NSCLC = test system: HOP-62 NSCLC
NCI-H522 lung = test system: NCI-H522 lung
OVCAR-8 ovarian = test system: OVCAR-8 ovarian
CCRF-CEM leukemia = test system: CCRF-CEM leukemia
SW-620 colon = test system: SW-620 colon
SF-295 CNS = test system: SF-295 CNS
UACC-257 melanoma = test system: UACC-257 melanoma
SF-268 CNS = test system: SF-268 CNS
MCF7 breast = test system: MCF7 breast
COLO 205 colon = test system: COLO 205 colon
NCI-H23 lung = test system: NCI-H23 lung
UACC-62 melanoma = test system: UACC-62 melanoma
LOX IMVI melanoma = test system: LOX IMVI melanoma
SR leukemia = test system: SR leukemia
SK-MEL-5 melanoma = test system: SK-MEL-5 melanoma
EKVX NSCLC = test system: EKVX NSCLC
HT29 colon = test system: HT29 colon
DU-145 prostate = test system: DU-145 prostate
UO-31 renal = test system: UO-31 renal
MDA-MB-231 breast = test system: MDA-MB-231 breast
SK-OV-3 ovarian = test system: SK-OV-3 ovarian
NCI/ADR-RES ovarian = test system: NCI/ADR-RES ovarian
CAKI-1 renal = test system: CAKI-1 renal
A549 NSCLC = test system: A549 NSCLC
HCT-15 colon = test system: HCT-15 colon
HCC-2998 colon = test system: HCC-2998 colon
NCI-H460 lung = test system: NCI-H460 lung
K-562 leukemia = test system: K-562 leukemia
HS 578T breast = test system: HS 578T breast
SF-539 CNS = test system: SF-539 CNS
T-47D breast = test system: T-47D breast
SNB-19 CNS = test system: SNB-19 CNS
SK-MEL-28 melanoma = test system: SK-MEL-28 melanoma
HCT-116 colon = test system: HCT-116 colon
PC-3 prostate = test system: PC-3 prostate
NCI-H226 lung = test system: NCI-H226 lung
IGROV1 ovarian = test system: IGROV1 ovarian
RXF 393 renal = test system: RXF 393 renal
TK-10 renal = test system: TK-10 renal
MOLT-4 leukemia = test system: MOLT-4 leukemia
RPMI-8226 leukemia = test system: RPMI-8226 leukemia
BT-549 breast = test system: BT-549 breast
U251 CNS = test system: U251 CNS
MALME-3M melanoma = test system: MALME-3M melanoma
HL-60(TB) leukemia = test system: HL-60(TB) leukemia
ACHN renal = test system: ACHN renal
A498 renal = test system: A498 renal
KM12 colon = test system: KM12 colon
OVCAR-5 ovarian = test system: OVCAR-5 ovarian
SK-MEL-2 melanoma = test system: SK-MEL-2 melanoma
M14 melanoma = test system: M14 melanoma
786-0 renal = test system: 786-0 renal
SN12C renal = test system: SN12C renal
OVCAR-4 ovarian = test system: OVCAR-4 ovarian

`Cc1ccc(C2=NN(c3ccc(S(C)(=O)=O)cc3)C(=O)CC2)cc1` showed a GI50 (OVCAR-3 ovarian) of 0.349 µM, a TGI (OVCAR-3 ovarian) of 2.35 µM and a GI50 (SNB-75 CNS) of 0.542 µM. For the same molecule, the TGI (SNB-75 CNS) was 9.25 µM, the GI50 (HOP-92 NSCLC) was 1.02 µM and the TGI (HOP-92 NSCLC) was > 28.8 µM. The GI50 (HOP-62 NSCLC) was 1.78 µM, the TGI (HOP-62 NSCLC) was > 100 µM and the GI50 (NCI-H522 lung) was 0.225 µM. For the same molecule, the TGI (NCI-H522 lung) was 1.04 µM, the GI50 (OVCAR-8 ovarian) was 1.35 µM and the TGI (OVCAR-8 ovarian) was > 100 µM. For the same molecule, the GI50 (CCRF-CEM leukemia) was 0.843 µM, the TGI (CCRF-CEM leukemia) was > 100 µM and the GI50 (SW-620 colon) was 0.368 µM. The TGI (SW-620 colon) was > 100 µM, the GI50 (SF-295 CNS) was 0.396 µM and the TGI (SF-295 CNS) was 16.8 µM. The GI50 (UACC-257 melanoma) was 3.4 µM, the TGI (UACC-257 melanoma) was > 100 µM and the GI50 (SF-268 CNS) was 6.25 µM. The TGI (SF-268 CNS) was > 100 µM, the GI50 (MCF7 breast) was 1.3 µM and the TGI (MCF7 breast) was > 100 µM. The GI50 (COLO 205 colon) was 0.587 µM, the TGI (COLO 205 colon) was 5.16 µM and the GI50 (NCI-H23 lung) was 2.13 µM. For the same molecule, the TGI (NCI-H23 lung) was > 100 µM, the GI50 (UACC-62 melanoma) was 0.493 µM and the TGI (UACC-62 melanoma) was > 100 µM. The GI50 (LOX IMVI melanoma) was 0.806 µM, the TGI (LOX IMVI melanoma) was > 100 µM and the GI50 (SR leukemia) was 0.4 µM. For the same molecule, the TGI (SR leukemia) was > 100 µM, the GI50 (SK-MEL-5 melanoma) was 0.633 µM and the TGI (SK-MEL-5 melanoma) was > 42.1 µM. The GI50 (EKVX NSCLC) was 3.84 µM, the TGI (EKVX NSCLC) was > 100 µM and the GI50 (HT29 colon) was 0.349 µM. For the same molecule, the TGI (HT29 colon) was > 32.9 µM, the GI50 (DU-145 prostate) was 2.48 µM and the TGI (DU-145 prostate) was > 100 µM. The GI50 (UO-31 renal) was 7.85 µM, the TGI (UO-31 renal) was > 100 µM and the GI50 (MDA-MB-231 breast) was 1.37 µM. For the same molecule, the TGI (MDA-MB-231 breast) was > 100 µM, the GI50 (SK-OV-3 ovarian) was 1.57 µM and the TGI (SK-OV-3 ovarian) was 21.5 µM. For the same molecule, the GI50 (NCI/ADR-RES ovarian) was 0.322 µM, the TGI (NCI/ADR-RES ovarian) was > 100 µM and the GI50 (CAKI-1 renal) was 1.64 µM. The TGI (CAKI-1 renal) was > 100 µM, the GI50 (A549 NSCLC) was 0.615 µM and the TGI (A549 NSCLC) was > 100 µM. For the same molecule, the GI50 (HCT-15 colon) was 0.74 µM, the TGI (HCT-15 colon) was > 100 µM and the GI50 (HCC-2998 colon) was 3.1 µM. The TGI (HCC-2998 colon) was > 100 µM, the GI50 (NCI-H460 lung) was 0.402 µM and the TGI (NCI-H460 lung) was > 100 µM. For the same molecule, the GI50 (K-562 leukemia) was 0.408 µM, the TGI (K-562 leukemia) was > 100 µM and the GI50 (HS 578T breast) was 2.24 µM. The TGI (HS 578T breast) was > 100 µM, the GI50 (SF-539 CNS) was 1.45 µM and the TGI (SF-539 CNS) was 23.4 µM. For the same molecule, the GI50 (T-47D breast) was 3.82 µM, the TGI (T-47D breast) was > 100 µM and the GI50 (SNB-19 CNS) was 6.42 µM. For the same molecule, the TGI (SNB-19 CNS) was > 100 µM, the GI50 (SK-MEL-28 melanoma) was 2.58 µM and the TGI (SK-MEL-28 melanoma) was > 100 µM. The GI50 (HCT-116 colon) was 0.431 µM, the TGI (HCT-116 colon) was > 85.4 µM and the GI50 (PC-3 prostate) was 1.78 µM. The TGI (PC-3 prostate) was > 100 µM, the GI50 (NCI-H226 lung) was 42.3 µM and the TGI (NCI-H226 lung) was > 100 µM. For the same molecule, the GI50 (IGROV1 ovarian) was 1.82 µM, the TGI (IGROV1 ovarian) was > 100 µM and the GI50 (RXF 393 renal) was 1.11 µM. For the same molecule, the TGI (RXF 393 renal) was > 26.1 µM, the GI50 (TK-10 renal) was 12.8 µM and the TGI (TK-10 renal) was > 100 µM. For the same molecule, the GI50 (MOLT-4 leukemia) was 0.875 µM, the TGI (MOLT-4 leukemia) was > 100 µM and the GI50 (RPMI-8226 leukemia) was 1.62 µM. The TGI (RPMI-8226 leukemia) was > 100 µM, the GI50 (BT-549 breast) was 0.569 µM and the TGI (BT-549 breast) was > 100 µM. For the same molecule, the GI50 (U251 CNS) was 0.579 µM, the TGI (U251 CNS) was > 100 µM and the GI50 (MALME-3M melanoma) was 51.9 µM. The TGI (MALME-3M melanoma) was > 100 µM, the GI50 (HL-60(TB) leukemia) was 0.525 µM and the GI50 (ACHN renal) was 8.52 µM. The TGI (ACHN renal) was > 100 µM, the GI50 (A498 renal) was 0.282 µM and the TGI (A498 renal) was 7.73 µM. The GI50 (KM12 colon) was 0.452 µM, the TGI (KM12 colon) was > 100 µM and the GI50 (OVCAR-5 ovarian) was 10.1 µM. The TGI (OVCAR-5 ovarian) was > 100 µM, the GI50 (SK-MEL-2 melanoma) was 0.541 µM and the TGI (SK-MEL-2 melanoma) was > 100 µM. The GI50 (M14 melanoma) was 0.419 µM, the TGI (M14 melanoma) was > 100 µM and the GI50 (786-0 renal) was 7.26 µM. The TGI (786-0 renal) was > 100 µM, the GI50 (SN12C renal) was 5.57 µM and the TGI (SN12C renal) was > 100 µM. For the same molecule, the GI50 (OVCAR-4 ovarian) was > 27.3 µM and the TGI (OVCAR-4 ovarian) was > 100 µM.
